Ten molecules from US11919883B2, “Metalloenzyme inhibitor compounds” (Ji Xing Pharmaceuticals Hong Kong Limited, priority 2016, dated 2024) can be followed below.

In data set [1] the target is T1, recombinant human CYP11B1 (Homo sapiens, UniProt P15538).
T1 construct: made in house; host or cells: V79-4 cells (enzyme enriched microsomal fraction of cell lysates)
T1 sequence (P15538 25-503): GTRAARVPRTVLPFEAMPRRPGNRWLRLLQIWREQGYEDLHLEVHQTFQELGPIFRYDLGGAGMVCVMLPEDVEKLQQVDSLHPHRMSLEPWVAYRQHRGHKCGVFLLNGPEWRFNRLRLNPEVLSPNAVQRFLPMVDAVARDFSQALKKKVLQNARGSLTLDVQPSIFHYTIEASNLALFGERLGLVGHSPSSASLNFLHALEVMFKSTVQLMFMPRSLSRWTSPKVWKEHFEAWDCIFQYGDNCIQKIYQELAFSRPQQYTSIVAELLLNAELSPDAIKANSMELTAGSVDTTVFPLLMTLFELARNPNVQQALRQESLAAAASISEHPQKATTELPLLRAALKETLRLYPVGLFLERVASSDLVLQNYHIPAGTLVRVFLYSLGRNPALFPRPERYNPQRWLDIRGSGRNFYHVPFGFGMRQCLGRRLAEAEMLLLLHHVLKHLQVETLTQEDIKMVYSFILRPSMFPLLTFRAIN
In words: CYP11B1 enzyme assay, enzyme enriched microsomes from V79-4 cells, cortisol by LC-MS. Format: biochemical.
Procedure: (§1) An enzyme enriched microsomal fraction was prepared from cellular lysates and subsequently used as the enzyme source for determining inhibitor IC50s. […] Enzyme assays for inhibitor screening employed CYP11B2 and CYP11B1 enzyme enriched microsomes and were run at the Km of the respective substrates. Products of the enzyme reactions, aldosterone for CYP11B2 or cortisol for CYP11B1, were measured by LC-MS. Assays were run under conditions of less than 20% substrate turnover. Inhibitor IC50s were generated by determining the product formation in the absence or presence of inhibitor at various concentrations. In the absence of the test compound, the product formed (Pt) in each data set was defined as 100% activity. In the absence of enzyme, the product formed (Pb) in each data set was defined as 0% activity. The percent activity in the presence of each inhibitor was calculated according to the following equation: % activity=(P−Pb)/(Pt−Pb), where P=the product formed in the presence of the inhibitor.

The target in data set [2] is T2, recombinant human CYP11B2 (Homo sapiens, UniProt P19099).
T2 construct: made in house; host or cells: V79-4 cells (enzyme enriched microsomal fraction of cell lysates)
T2 sequence (P19099 25-503): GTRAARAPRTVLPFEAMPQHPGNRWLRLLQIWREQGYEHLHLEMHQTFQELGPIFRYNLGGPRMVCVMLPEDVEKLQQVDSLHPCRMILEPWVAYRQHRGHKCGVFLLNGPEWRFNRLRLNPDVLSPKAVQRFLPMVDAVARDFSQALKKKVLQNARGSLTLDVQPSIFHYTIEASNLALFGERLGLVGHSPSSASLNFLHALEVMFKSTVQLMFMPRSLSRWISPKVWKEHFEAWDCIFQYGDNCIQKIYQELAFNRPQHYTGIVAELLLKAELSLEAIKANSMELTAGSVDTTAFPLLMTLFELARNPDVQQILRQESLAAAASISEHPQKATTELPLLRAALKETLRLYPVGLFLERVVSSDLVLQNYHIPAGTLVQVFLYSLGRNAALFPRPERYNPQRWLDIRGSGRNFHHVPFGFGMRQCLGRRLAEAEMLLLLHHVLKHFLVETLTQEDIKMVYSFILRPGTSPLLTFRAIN
In words: CYP11B2 enzyme assay, enzyme enriched microsomes from V79-4 cells, aldosterone by LC-MS. In kind it is biochemical. The following applies: for Selectivity: CYP11B1 IC50/CYP11B2 IC50.
Procedure: as §1

The nature of data set [3]: Cyno liver microsome stability. In kind it is in vitro ADME, cynomolgus monkey. The following applies: for Cyno LM Stability: % Compound remaining at 65 min in cyno liver microsomes; for metabolic stability when exposed to cynomolgus monkey liver microsomes: compared with pyridine counterpart Example 76. (Liver microsomes are a subcellular fraction often used to study metabolism.)

The nature of data set [4]: Rat liver microsome stability. The settings on record: for Rat LM Stability: % Compound remaining at 65 min in rat liver microsomes. Format: in vitro ADME.
The nature of data set [5]: Cyno half life after PO dose. Set-up: species or system cynomolgus monkeys. The following applies: cynomolgus monkey; for half-life: in vivo, 1 mg/kg PO dose, read-out: Cyno T½ (converted).
The mark [6] stands for this setting: IC50 ranges, run at Km of 11-deoxycortisol, read-out: hCYP11B1 IC50.
Where [7] appears, read: Table 3 comparison, read-out: CYP11B1 IC50.
Setting [8] is: IC50 ranges, run at Km of 11-deoxycorticosterone, read-out: hCYP11B2 IC50.
The mark [9] stands for this setting: Table 3 comparison, read-out: CYP11B2 IC50.

Where two headings read alike, the source gives them in different places. Where only a bound is given, the exact number is not on record here.

Turning to `Fc1ccc2nc(-c3cncnc3)n(C3CC3)c2c1` [Example 1, 1-Cyclopropyl-6-fluoro-2-(pyrimidin-5-yl)-1H-benzo[d]imidazole], the IC50 (as a rule, the concentration that inhibits the measured activity by half) in data set [1] (setting [6]) is 1000 to 10000 nM; in data set [1] (setting [7]) it was 5380 nM; in data set [2] (setting [8]) it was 1 to 100 nM; in data set [2] (setting [9]), 40 nM. The Selectivity in data set [2] came out at 134. In addition, in data set [3], the “Cyno LM Stability” value is listed as 70%. For the same molecule, in data set [4], the “Rat LM Stability” value is given as 0%.
Consider `Cc1ncncc1-c1nc2cc(F)c(F)cc2n1C1CC1` [Example 44, 1-Cyclopropyl-5,6-difluoro-2-(4-methylpyrimidin-5-yl)-1H-benzo[d]imidazole], for which the IC50 in data set [1] (setting [6]) is 1000 to 10000 nM; in data set [1] (setting [7]) it was 4160 nM; in data set [2] (setting [8]), 1 to 100 nM; in data set [2] (setting [9]), 17 nM. The Selectivity in data set [2] came out at 244. Further, in data set [3], the “Cyno LM Stability” value came out at 72%. Moreover, the “Rat LM Stability” value in data set [4] was 96%.
In the case of `Fc1cc2nc(-c3cncnc3C(F)F)n(C3CC3)c2cc1F` [Example 27, 1-Cyclopropyl-2-(4-(difluoromethyl)pyrimidin-5-yl)-5,6-difluoro-1H-benzo[d]imidazole], the “in vivo half-lives in cynomolgus monkeys” value in data set [5] is listed as “long in vivo half-lives”. Moreover, the half-life in data set [5] was 16.9 h. The IC50 in data set [1] (setting [6]) is 1000 to 10000 nM; in data set [1] (setting [7]) it was 4720 nM; in data set [2] (setting [8]), 1 to 100 nM; in data set [2] (setting [9]), 17 nM. For the same molecule, the “Cyno LM Stability” value in data set [3] was 106%. Moreover, the “metabolic stability when exposed to cynomolgus monkey liver microsomes” value in data set [3] is “much greater metabolic stability”.
Turning to `Fc1cc2nc(-c3cncnc3C(F)(F)F)n(C3CC3)c2cc1F` [Example 30, 1-Cyclopropyl-5,6-difluoro-2-(4-(trifluoromethyl)pyrimidin-5-yl)-1H-benzo[d]imidazole], in data set [5], the “in vivo half-lives in cynomolgus monkeys” value is “long in vivo half-lives”. In addition, the half-life in data set [5] was 37.5 h. Further, the 50% inhibitory concentration (IC50) is 1000 to 10000 nM in data set [1] (setting [6]), 6370 nM in data set [1] (setting [7]), 1 to 100 nM in data set [2] (setting [8]) and 32 nM in data set [2] (setting [9]). The Selectivity in data set [2] turned out to be 199. In addition, the “Cyno LM Stability” value in data set [3] is recorded as 99%. In addition, in data set [3], the “metabolic stability when exposed to cynomolgus monkey liver microsomes” value is on record as “much greater metabolic stability”. Moreover, the “Rat LM Stability” value in data set [4] was 108%. Besides, the “metabolic stability when exposed to rat liver microsomes” value in data set [4] (compared with pyridine counterpart Example 76) was “much greater metabolic stability”.
`CN(C)c1ncncc1-c1nc2cc(F)c(F)cc2n1C1CC1` [Example 32, 5-(1-Cyclopropyl-5,6-difluoro-1H-benzo[d]imidazol-2-yl)-N,N-dimethylpyrimidin-4-amine]: the IC50 was in the range of 1000 to 10000 nM in data set [1] (setting [6]) and 1 to 100 nM in data set [2] (setting [8]).
Regarding `CNc1ncncc1-c1nc2cc(F)c(F)cc2n1C1CC1` [Example 31, 5-(1-Cyclopropyl-5,6-difluoro-1H-benzo[d]imidazol-2-yl)-N-methylpyrimidin-4-amine], the IC50 was in the range of 100 to 1000 nM in data set [1] (setting [6]) and 1 to 100 nM in data set [2] (setting [8]).
For `CNc1ncncc1-c1nc2ccc(F)cc2n1C1CC1` [Example 12, 5-(1-Cyclopropyl-6-fluoro-1H-benzo[d]imidazol-2-yl)-N-methylpyrimidin-4-amine], the results for the concentration for half-maximal inhibition (IC50) in data set [1] (setting [6]) and in data set [2] (setting [8]) were 100 to 1000 nM and 1 to 100 nM, respectively.
As to `CC(F)(F)c1ncncc1-c1nc2cc(F)c(F)cc2n1C1CC1` [Example 71, 1-Cyclopropyl-2-(4-(1,1-difluoroethyl)pyrimidin-5-yl)-5,6-difluoro-1H-benzo[d]imidazole], the IC50 in data set [1] (setting [6]) fell in the range of 1000 to 10000 nM; in data set [2] (setting [8]), 1 to 100 nM.
As to `Cc1ncncc1-c1nc2ccc(C#N)cc2n1CC(F)(F)F` [Example 49, 2-(4-Methylpyrimidin-5-yl)-1-(2,2,2-trifluoroethyl)-1H-benzo[d]imidazole-6-carbonitrile], the IC50 is greater than 10000 nM in data set [1] (setting [6]) and 100 to 1000 nM in data set [2] (setting [8]).
On to `CCn1c(-c2cncnc2C)nc2ccc(C#N)cc21` [Example 18, 1-Ethyl-2-(4-methylpyrimidin-5-yl)-1H-benzo[d]imidazole-6-carbonitrile], for which the figures for the concentration for half-maximal inhibition (IC50) in data set [1] (setting [6]) and in data set [2] (setting [8]) were 1000 to 10000 nM and 1 to 100 nM, respectively.
